In brackets after ≈: the same amount, converted by molar mass. Several values for one entry are separate records, joined by “and”; a condition that tells them apart may be missing. Identical values can stand only once.
Experiments:
[1] = Solubility in double-distilled water; assay type: physicochemical; conditions: double-distilled water
Procedure: Physical characteristics of AMB derivatives and of AMB were tested, including solubility.

[2] = Pharmacokinetics upon single intravenous administration; assay type: in vivo, mice; design: ke: unit not given here; conditions: mouse serum, IV bolus; AMB 1 mg/kg, Compound 6 5 mg/kg
Procedure: AMB and Compound 6 solution in saline were administrated intravenously (IV) to groups of mice at a dose of 1 and 5 mg/kg body weight, respectively. The mice received an IV bolus via the tail vein. Mice were bled over a 48 h period at the following time points: 0, 5, 15 and 30 minutes and 1, 2, 6, 12, 24 and 48 h post-dosing (3 mice per time point). Bleeding was conducted using a facial vein technique into sterile Eppendorf tubes. Whole blood samples of 150 μl were collected at each time point, stored for 30 min at room temperature for clotting and centrifuged at 10,000 RPM for 10 minutes until serum separated. The serum samples were stored at −20° C.
The concentration of Compound 6 in the serum was measured by HPLC as follows: UltiMate® 3000 system (Dionex) was used equipped with 3000 pump, VWD-3000 UV-Vis detector and Chromeleon® 6.80 software. The column used was LiChroCART® 250×4.6 mm Purospher® STAR (5 μm) C-18 RP (reverse phase). Chromatographic conditions: flow: 1.0 ml/min, linear water (buffer A)/acetonitrile (ACN) (buffer B) gradient (buffer A—100% water, 0.1% TFA; buffer B—100% ACN, 0.1% TFA).
200 μl of methanol was added to 100 μl of serum sample and vortexed for 20 seconds, stored for 30 min at room temperature (22° C.), then centrifuged at 14,000 RPM for 10 minutes. The supernatant was filtered through a 0.22 μm filter and aliquots of 100 μl were analyzed by HPLC. AMB and Compound 6 were detected at a wavelength of 407 nm.
The pharmacokinetic graphs depicting drug concentration over time are shown in FIGS. 8A-8B (over 24 hours and 120 minutes respectively) and the calculated PK values are shown in Table 6 below.

[3] = tested on: C. albicans CBS 562; assay: Experimental systemic murine candidiasis, survival; assay type: in vivo, mice; conditions: four daily injections, 24 days
Procedure: Reference is Made to FIG. 5. Efficacy of PAD-AMB was Tested on Naïve 6 Week Old female ICR mice (n=20). Experimental systemic murine candidiasis was induced by intravenous inoculation of C. albicans CBS 562 into the tail vein using an inoculum of 5×10^4 cells in 0.2 ml per mouse. Fungal count was determined by microscopic counts on a haemocytometer. Treatment began 24 h after inoculation of C. albicans and consisted of four consecutive daily injections of Compound 6 at a range of 1.75-8.75 mg/kg/day relative to mouse body weight. Control groups included infected untreated mice and mice treated with AMB (1 mg/kg/day body weight). Survival and mouse body weight were monitored for 24 days. Survival for the various mouse groups is shown graphically in FIG. 5.

[4] = tested on: C. albicans; assay: Fungal burden in kidneys of infected mice; assay type: in vivo; conditions: AMB 1 mg/kg; Compound 6 1.75, 3.5 and 7 mg/kg
Procedure: Reference is made to FIGS. 6A-E. ICR female mice were inoculated with C. albicans in groups of 3 as described in example 6B and were killed 48 hours later for assessment of fungal burden. One kidney and the spleen were removed aseptically from each animal and homogenized in 1 mL of sterile normal saline. Serial 10-fold dilutions of the homogenates were spread on YAG plates, and colony-forming units (CFU)/organ was determined from the colony count after 24 hours incubation at 37° C. All mouse experiments were performed in duplicates.
At necropsy, fungal burden in mouse tissues was evaluated. […] FIGS. 6C-E show micrographs of mice treated with Compound 6 at dosages of 1.75 mg/kg, 3.5 mg/kg and 7 mg/kg, respectively.

[5] = Stability (hydrolysis) in phosphate buffered saline; assay type: physicochemical
[6] = Solubility in 0.9% saline after vortex, sonication and centrifuge; assay type: physicochemical

Row | SMILES | Solubility [1] [µg/mL] | AUC0-24 [2] [µg·h/mL] | CL [2] [mL/h] | MRT0-24 [2] [h] | Vd [2] [L] | ke [2] | t1/2 [2] | mice rescued (survival) ([3]; 3.5 mg/kg) | mice rescued (survival) ([3]; 7 mg/kg) | fungal hyphae in kidney sections (Fontana-Masson silver staining) [4] | hydrolysis after 4 hours ([5]; 4 hours) | level of hydrolysis after 24 hours ([5]; 24 hours) [%] | increased solubility relative to corresponding non-PEG-conjugated AMB compounds [6] | mice rescued (survival) ([3]; 1 mg/kg/day)
1 | COC(=O)C1C(O)CC2(O)CC(O)CC(O)C(O)CCC(O)CC(O)CC(=O)OC(C)C(C)C(O)C(C)C=CC=CC=CC=CC=CC=CC=CC(OC3OC(C)C(O)C(NC(=O)CCOCCOCCOCCOCCOCCOCCOCCOCCN)C3O)CC1O2 (stereo not drawn) [Compound 6, amphotericin B amide, methyl ester-PEG(8)-amine] | 700 (≈ 514 µM) | 421.234 | 0.508 | 5.431 | 0.002 | 0.220 | 3.153 h | the same level of efficacy | rescued all of the mice | barely detectable | no hydrolysis could be observed | 0.8 | greater than 700 fold | 
2 | C[C@@H]1[C@H](O)[C@@H](C)/C=C/C=C/C=C/C=C/C=C/C=C/C=C/[C@H](O[C@@H]2O[C@H](C)[C@@H](O)[C@H](N)[C@@H]2O)C[C@@H]2O[C@](O)(C[C@@H](O)C[C@@H](O)[C@H](O)CC[C@@H](O)C[C@@H](O)CC(=O)O[C@H]1C)C[C@H](O)[C@H]2C(=O)O [AMB, Amphotericin B] | <1 | 63.983 | 0.250 | 9.664 | 0.006 |  | 15.96 h and 15.964 h |  |  | barely detectable |  |  |  | 10 of the 12
